From patent US8598163B2, “Derivatives of [1,3]Oxazin-2-one useful for the treatment of metabolic diseases such as lipid disorders” (Vitae Pharmaceuticals, Inc., priority 2009, dated 2013)

Legend:
11β-HSD1 [1] = target: T1, 11β-HSD1 (Homo sapiens (Human), UniProt P28845); conditions: comparator compounds; IC50 in Biological Test Example 4 divided by IC50 in Biological Test Example 1
Protocol: The assay began by dispensing 49 μl of microsome solution into 96-well polypropylene plates and adding 1 μl of the test compounds in DMSO, previously diluted in half-log increments (8 points) starting at 1.0 mM. […] The plates were incubated for 120 minutes at rt, and the reaction was quenched with the addition of 100 μl acetonitrile with 20 mM cortisone and 20 mM cortisol. After a ten minute incubation at rt, 100 μl of each well was filtered through a MultiScreen HTS, HV filter plate (Millipore) and diluted with 100 μl of reaction buffer without human plasma.

11β-HSD1 [2] = target: T1, 11β-HSD1; conditions: Biological Test 3, human liver microsomes, HTRF
Protocol: Briefly, compounds were incubated for 1 hour at 37° C. in Tris buffer (20 mM tris, 5 mM EDTA, pH 6.0) containing NADPH (200 μM) and cortisone (80 nM). Cortisol generated in the reaction is then detected with a competitive immunoassay, involving two HTRF conjugates: cortisol linked to XL665 and anti-cortisol antibody labeled with Europium cryptate. The incubation period for detection reaction was typically 2 hours. […] The ratio of the two emission signals was then calculated (Em665*10000/Em615). […] Each assay also contained a calibration curve with cortisol to transform the fluorescent data into cortisol concentrations. Percent inhibition of each compound was determined relative to the carbenoxolone signal.

T1 sequence (P28845 whole entry): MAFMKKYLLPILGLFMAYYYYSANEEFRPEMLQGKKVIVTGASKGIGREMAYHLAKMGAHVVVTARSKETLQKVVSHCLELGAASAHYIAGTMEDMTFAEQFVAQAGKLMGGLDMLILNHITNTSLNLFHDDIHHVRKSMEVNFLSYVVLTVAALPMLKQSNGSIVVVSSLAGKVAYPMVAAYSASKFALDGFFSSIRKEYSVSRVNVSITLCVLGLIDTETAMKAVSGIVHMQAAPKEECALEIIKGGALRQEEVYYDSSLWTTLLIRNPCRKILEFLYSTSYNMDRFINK

| Structure (SMILES) | Shift (11β-HSD1 [1]) | IC50 (11β-HSD1 [2]) [nM] |
| --- | --- | --- |
| Cc1nc2cc(-c3ccc([C@H](C)N4CC[C@](CC(C)(C)O)(c5ccccc5)OC4=O)cc3)ccn2n1 [Example 7, (S)-6-(2-Hydroxy-2-methyl-propyl)-3-{(5)-1-[4-(2-methyl-[1,2,4]triazolopyridin-7-yl)-phenyl]-ethyl}-6-phenyl-[1,3]oxazinan-2-one] | 42.43 | 31 |
| COc1nc2ccc(-c3ccc([C@H](C)N4CC[C@](CC(C)(C)O)(c5ccccc5)OC4=O)cc3)cn2n1 [Example 9, (S)-6-(2-Hydroxy-2-methyl-propyl)-3-{(S)-1-[4-(2-methoxy-[1,2,4]triazolo[1,5-a]pyridin-6-yl)-phenyl]-ethyl}-6-phenyl-[1,3]oxazinan-2-one] | 21.45 | 54 |
